Where “and” joins values, the source holds several entries; their conditions need not be identical. Identical values can stand only once.

T1 sequence (P08581 1078-1345 limits assumed): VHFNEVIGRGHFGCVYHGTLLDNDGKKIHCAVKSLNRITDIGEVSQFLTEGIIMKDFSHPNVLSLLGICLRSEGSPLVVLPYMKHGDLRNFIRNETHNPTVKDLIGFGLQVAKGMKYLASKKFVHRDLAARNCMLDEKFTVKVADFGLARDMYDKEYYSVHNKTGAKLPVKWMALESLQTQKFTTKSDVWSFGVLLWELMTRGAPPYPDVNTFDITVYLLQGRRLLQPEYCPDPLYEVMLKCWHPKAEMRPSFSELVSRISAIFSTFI

This test has as its target T1, GST fusion protein containing the Met kinase domain (Homo sapiens, UniProt P08581).
T1 construct: Purified GST fusion protein containing the Met kinase domain, Sugen, Inc
Put plainly: MET Transphosphorylation Assay (ELISA, poly(Glu,Tyr) 4:1 substrate). The conditions noted are these: met transphosphorylation of poly(glutamic acid:tyrosine 4:1) substrate; two values in a cell separated by '/'. Format: biochemical. On the procedure: MET Transphosphorylation Assay
This assay is used to measure phosphotyrosine levels on a poly(glutamic acid:tyrosine (4:1)) substrate as a means for identifying agonists/antagonists of met transphosphorylation of the substrate.
• 1. […] PBS, Gibco Catalog # 450-1300EB • 4. 50 mM HEPES • 5. […] Purified GST fusion protein containing the Met kinase domain, Sugen, Inc. • 7. TBST Buffer. • 8. 10% aqueous (MilliQue H2O) DMSO. • 9. […] 2× Kinase Dilution Buffer: for 100 ml, mix 10 mL 1M HEPES at pH 7.5 with 0.4 mL 5% BSA/PBS, 0.2 mL 0.1 M sodium orthovanadate and 1 mL 5M sodium chloride in 88.4 mL dH2O. • 11. 4×ATP Reaction Mixture: for 10 mL, mix 0.4 mL 1 M manganese chloride and 0.02 mL 0.1 M ATP in […] dH2O. • 12. 4× Negative Controls Mixture: for 10 mL, mix 0.4 mL 1 M manganese chloride in 9.6 mL dH2O.
13. […] 500 mM EDTA. • 15. Antibody Dilution Buffer: for 100 mL, mix 10 mL 5% BSA/PBS, 0.5 mL 5% Carnation Instant Milk® in PBS and 0.1 mL 0.1 M sodium orthovanadate in 88.4 mL TBST. • 16. Rabbit polyclonal antophosphotyrosine antibody, Sugen, Inc. • 17. Goat anti-rabbit horseradish peroxidase conjugated antibody, Biosource, Inc. • 18. ABTS Solution: for 1 L, mix 19.21 g citric acid, 35.49 g Na2HPO4 and 500 mg ABTS with sufficient dH2O to make 1 L. • 19. ABTS/H2O2: mix 15 mL ABST solution with 2 μL H2O2 five minutes before use. • 20. 0.2 M HCl Procedure: • 1. Coat ELISA plates with 2 μg Poly(Glu-Tyr) in 100 μL PBS, store overnight at 4° C. • 2. Block plate with 150 μL of 5% BSA/PBS for 60 min. • 3. Wash plate twice with PBS, once with 50 mM Hepes buffer pH 7.4. • 4. Add 50 μl of the diluted kinase to all wells. (Purified kinase is diluted with Kinase Dilution Buffer. Final concentration should be 10 ng/well.) • 5. Add 25 μL of the test compound (in 4% DMSO) or DMSO alone (4% in dH2O) for controls to plate. • 6. Incubate the kinase/compound mixture for 15 minutes. • 7. Add 25 μL of 40 mM MnCl2 to the negative control wells. • 8. Add 25 μL ATP/MnCl2 mixture to the all other wells (except the negative controls). Incubate for 5 min. • 9. Add 25 μL 500 mM EDTA to stop reaction. • 10. Wash plate 3× with TBST. • 11. Add 100 μL rabbit polyclonal anti-Ptyr diluted 1:10,000 in Antibody Dilution Buffer to each well. Incubate, with shaking, at room temperature for one hour. • 12. Wash plate 3× with TBST. • 13. […] Add 100 μL per well and incubate at room temperature, with shaking, for one hour. • 14. Wash plate 1× with PBS. • 15. Add 100 μl of ABTS/H2O2 solution to each well. • 16. If necessary, stop the development reaction with the addition of […] of 0.2M HCl per well. • 17.
The term IC50 denotes the midpoint of a concentration-inhibition curve. A high value points to weaker potency in that assay. For the molecule `O=C(Cc1ccc(O)cc1)N/N=C1\C(=O)Nc2ccc(Cl)c(Cl)c21` [II-33, (4-Hydroxy-phenyl)-acetic acid [(3Z)-4,5-dichloro-2-oxo-1,2-dihydro-indol-3-ylidene]-hydrazide], the IC50 worked out at 15 nM. The result for `O=C(Cc1ccc(Cl)cc1)N/N=C1\C(=O)Nc2ccccc21` [II-7, (4-Chloro-phenyl)-acetic acid [(3E)-2-oxo-1,2-dihydro-indol-3-ylidene]-hydrazide] reads above 20000 nM; that for `Cc1ccc2c(c1Br)/C(=N/NC(=O)Cc1ccc(O)cc1)C(=O)N2` [II-53, (4-Hydroxy-phenyl)-acetic acid [3Z)-(4-bromo-5-methyl-2-oxo-1,2-dihydro-indol-3-ylidene]-hydrazide], 23 nM. The molecule `O=C(Cc1cnc(=O)[nH]c1)N/N=C1\C(=O)Nc2ccccc21` [II-89, (2-Oxo-1,2-dihydro-pyrimidin-5-yl)-acetic acid [(3Z)-2-oxo-1,2-dihydro-indol-3-ylidene]-hydrazide] displayed an IC50 of 12600 nM.

Take `CC(C)Oc1ccc(CC(=O)N/N=C2\C(=O)Nc3ccccc32)cc1` [II-9, (4-Isopropoxy-phenyl)-acetic acid [(3Z)-2-oxo-1,2-dihydro-indol-3-ylidene]-hydrazide]: the IC50 was above 20000 nM.

On to `O=C(Cc1cc[n+]([O-])cc1)N/N=C1\C(=O)Nc2ccccc21` [II-37, (1-Oxy-pyridin-4-yl)-acetic acid [(3Z)-2-oxo-1,2-dihydro-indol-3-ylidene]-hydrazide], for which the IC50 was 10800 nM. The figure for `Nc1cccc(CC(=O)N/N=C2\C(=O)Nc3c(Cl)ccc(Cl)c32)c1` [II-78, (3-Amino-phenyl)-acetic acid [(3Z)-4,7-dichloro-2-oxo-1,2-dihydro-indol-3-ylidene]-hydrazide] is 110 nM. The result for `Nc1ccc(CC(=O)N/N=C2\C(=O)Nc3ccccc32)cc1` [II-22] reads above 20000 nM. The figure for `Cc1ccc(C)c2c1NC(=O)/C2=N\NC(=O)Cc1ccc(O)c(C#N)c1` [II-112, (3-Cyano-4-hydroxy-phenyl)-acetic acid [(3Z)-4,7-dimethyl-2-oxo-1,2-dihydro-indol-3-ylidene]-hydrazide] is 2500 nM; for `Cc1cc(Cl)cc2c1NC(=O)/C2=N\NC(=O)Cc1ccc(O)cc1` [II-63, (4-Hydroxy-phenyl)-acetic acid [(3Z)-5-chloro-7-methyl-2-oxo-1,2-dihydro-indol-3-ylidene]hydrazide] it is below 9.1 nM. In turn, `Cc1ccc2c(c1)/C(=N/NC(=O)Cc1ccc(O)cc1)C(=O)N2` [II-58, (4-Hydroxy-phenyl)-acetic acid [(3Z)-5-methyl-2-oxo-1,2-dihydro-indol-3-ylidene]-hydrazide] yielded a half-inhibitory concentration (IC50) of 67 nM.

`O=C(Cc1ccc(O)cc1)N/N=C1\C(=O)Nc2cccc(C3CCNCC3)c21` [Example I-18, (4-Hydroxy-phenyl)-acetic acid [(3Z)-2-oxo-4-piperidin-4-yl-1,2-dihydro-indol-3-ylidene]-hydrazide] came in with an IC50 above 20000 nM. The figure for `Cc1ccc(C)c2c1NC(=O)/C2=N\NC(=O)CCc1ccc(N)cc1` [II-93, 3-(4-Amino-phenyl)-propionic acid [(3Z)-4,7-dimethyl-2-oxo-1,2-dihydro-indol-3-ylidene]-hydrazide] is above 20000 nM. The figure for `CS(=O)(=O)c1ccc(CC(=O)N/N=C2\C(=O)Nc3ccccc32)cc1` [Example I-21, (4-Methanesulfonyl-phenyl)-acetic acid [(3Z)-2-oxo-1,2-dihydro-indol-3-ylidene]-hydrazide] is above 20000 nM. The result for `CC(C(=O)N/N=C1\C(=O)Nc2c(Cl)ccc(Cl)c21)c1ccc(O)c(Br)c1` (stereo not shown) [II-104, 2-(3-Bromo-4-hydroxy-phenyl)-propionic acid [(3Z)-4,7-dichloro-2-oxo-1,2-dihydro-indol-3-ylidene]-hydrazide] reads 790 nM. For `COc1ccc(CCC(=O)N/N=C2\C(=O)Nc3c(Cl)ccc(Cl)c32)cc1` [II-86, 3-(4-Methoxy-phenyl)-propionic acid [(3Z)-4,7-dichloro-2-oxo-1,2-dihydro-indol-3-ylidene]-hydrazide], the 50% inhibitory concentration (IC50) stood at 2000 nM. Turning to `CN1CCN(C(=O)c2ccc3c(c2)/C(=N/NC(=O)Cc2ccc(O)cc2)C(=O)N3)CC1` [Example I-12, (4-Hydroxy-phenyl)-acetic acid [(3Z)-5-(4-methyl-piperazine-1-carbonyl)-2-oxo-1,2-dihydro-indol-3-ylidene]-hydrazide], inhibition was half-maximal at 78 nM (IC50). The figure for `O=C(Cc1ccc(O)c(Br)c1)N/N=C1\C(=O)Nc2ccccc21` [II-101, (3-Bromo-4-hydroxy-phenyl)-acetic acid [(3Z)-2-oxo-1,2-dihydro-indol-3-ylidene]-hydrazide] is 54 nM. As to `CC(C)C(C(=O)N/N=C1\C(=O)Nc2c(Cl)ccc(Cl)c21)c1ccc(O)cc1` (stereo not shown) [II-69, 2-(4-Hydroxy-phenyl)-3-methyl-butyric acid [(3Z)-4,7-dichloro-2-oxo-1,2-dihydro-indol-3-ylidene)-hydrazide], 170 nM corresponded to half-maximal inhibition (IC50). The result for “(3-Chloro-4-hydroxy-phenyl)-acetic acid [(3Z)-4,7-dimethyl-2-oxo-1,2-dihydro-indol-3-ylidene]-hydrazide [II-48]” reads 20 nM; that for `COc1ccc(CC(=O)N/N=C2\C(=O)Nc3c(C)ccc(C)c32)cn1` [II-45, (6-Methoxy-pyridin-3-yl)-acetic acid [(3Z)-4,7-dimethyl-2-oxo-1,2-dihydro-indol-3-ylidene]-hydrazide], 110 nM; that for `COc1cc(CC(=O)N/N=C2\C(=O)Nc3ccccc32)ccc1O` [II-40, (4-Hydroxy-3-methoxy-phenyl)-acetic acid [(3Z)-2-oxo-1,2-dihydro-indol-3-ylidene]-hydrazide], 240 nM. The result for `O=C(Cc1cc(=O)[nH]c(=O)[nH]1)N/N=C1\C(=O)Nc2ccccc21` [II-80, (2,6-Dioxo-1,2,3,6-tetrahydro-pyrimidin-4-yl)-acetic acid [(3Z)-2-oxo-1,2-dihydro-indol-3-ylidene)-hydrazide] reads above 20000 nM. As to `CS(=O)(=O)c1ccc2c(c1)/C(=N/NC(=O)Cc1ccc(O)cc1)C(=O)N2` [Example I-9, (4-Hydroxy-phenyl)-acetic acid [(3Z)-5-methanesulfonyl-2-oxo-1,2-dihydro-indol-3-ylidene]-hydrazide], the IC50 was < 9.1 nM and 22 nM. The result for `Cn1cc(CC(=O)N/N=C2\C(=O)Nc3c(Cl)ccc(Cl)c32)ccc1=O` [II-59, (1-Methyl-6-oxo-1,6-dihydro-pyridin-3-yl)-acetic acid [(3Z)-4,7-dichloro-2-oxo-1,2-dihydro-indol-3-ylidene]-hydrazide] reads 45 nM. The result for `O=C(CCc1ccc(O)cc1)N/N=C1\C(=O)Nc2ccccc21` [II-25, 3-(4-Hydroxy-phenyl)-propionic acid [(3Z)-2-oxo-1,2-dihydro-indol-3-ylidene]-hydrazide] reads 6350 nM; that for `O=C(Cc1ccc(F)cc1)N/N=C1\C(=O)Nc2c(Cl)ccc(Cl)c21` [II-67, (4-Fluoro-phenyl)-acetic acid [(3Z)-4,7-dichloro-2-oxo-1,2-dihydro-indol-3-ylidene)-hydrazide], 20 nM.

In turn, `CC(C(=O)N/N=C1\C(=O)Nc2c(Cl)ccc(Cl)c21)c1ccc(O)cc1` (stereo not shown) [II-77, 2-(4-Hydroxy-phenyl)-propionic acid [(3Z)-4,7-dichloro-2-oxo-1,2-dihydro-indol-3-ylidene]-hydrazide] yielded a 50% inhibitory concentration (IC50) of 15 nM.

These data come from US20060009493A1, “Indolinone hydrazides as c-Met inhibitors” (Sugen, Inc., priority 2003, published 2006).
